From patent publication US6124323A, “4-substituted piperidine analogs and their use as subtype selective NMDA receptor antagonists” (Warner-Lambert Company, priority 1998, dated 2000)
Counter-ions that a name gives are not always drawn.

Key:
[1] = test system: Maximal Electroshock-induced Seizures; assay: Maximal electroshock-induced seizures (MES); format: in vivo; details: Mus musculus; mice; 50 mA, 60 pulses/sec, 1 sec
Text: Seizures were induced by application of current (50 mA, 60 pulses/sec, 0.8 sec pulse width, 1 sec duration, d.c.) through saline-coated corneal electrodes using a Ugo Basile ECT device (Model 7801). […] A tonic seizure was defined as a hindlimb extension in excess of 90 degrees from the plane of the body.

[2] = target: T1, NMDA receptor subunits 1A/2B (Rattus norvegicus, UniProt P35439+Q00960); assay: Electrophysiological assay at NMDA receptor subunits expressed in Xenopus oocytes, 1A/2B; format: cell-based; details: Xenopus oocytes; glutamate 100 μm and glycine 1-100 μm; read-out: Subunits IC50, 1A/2B
T1 construct: expressed in transfected cells; host or cells: Xenopus laevis oocytes (cRNA injection; clones from Dr. P. H. Seeburg)
T1 sequence (Q00960 27-1482, other chains not shown): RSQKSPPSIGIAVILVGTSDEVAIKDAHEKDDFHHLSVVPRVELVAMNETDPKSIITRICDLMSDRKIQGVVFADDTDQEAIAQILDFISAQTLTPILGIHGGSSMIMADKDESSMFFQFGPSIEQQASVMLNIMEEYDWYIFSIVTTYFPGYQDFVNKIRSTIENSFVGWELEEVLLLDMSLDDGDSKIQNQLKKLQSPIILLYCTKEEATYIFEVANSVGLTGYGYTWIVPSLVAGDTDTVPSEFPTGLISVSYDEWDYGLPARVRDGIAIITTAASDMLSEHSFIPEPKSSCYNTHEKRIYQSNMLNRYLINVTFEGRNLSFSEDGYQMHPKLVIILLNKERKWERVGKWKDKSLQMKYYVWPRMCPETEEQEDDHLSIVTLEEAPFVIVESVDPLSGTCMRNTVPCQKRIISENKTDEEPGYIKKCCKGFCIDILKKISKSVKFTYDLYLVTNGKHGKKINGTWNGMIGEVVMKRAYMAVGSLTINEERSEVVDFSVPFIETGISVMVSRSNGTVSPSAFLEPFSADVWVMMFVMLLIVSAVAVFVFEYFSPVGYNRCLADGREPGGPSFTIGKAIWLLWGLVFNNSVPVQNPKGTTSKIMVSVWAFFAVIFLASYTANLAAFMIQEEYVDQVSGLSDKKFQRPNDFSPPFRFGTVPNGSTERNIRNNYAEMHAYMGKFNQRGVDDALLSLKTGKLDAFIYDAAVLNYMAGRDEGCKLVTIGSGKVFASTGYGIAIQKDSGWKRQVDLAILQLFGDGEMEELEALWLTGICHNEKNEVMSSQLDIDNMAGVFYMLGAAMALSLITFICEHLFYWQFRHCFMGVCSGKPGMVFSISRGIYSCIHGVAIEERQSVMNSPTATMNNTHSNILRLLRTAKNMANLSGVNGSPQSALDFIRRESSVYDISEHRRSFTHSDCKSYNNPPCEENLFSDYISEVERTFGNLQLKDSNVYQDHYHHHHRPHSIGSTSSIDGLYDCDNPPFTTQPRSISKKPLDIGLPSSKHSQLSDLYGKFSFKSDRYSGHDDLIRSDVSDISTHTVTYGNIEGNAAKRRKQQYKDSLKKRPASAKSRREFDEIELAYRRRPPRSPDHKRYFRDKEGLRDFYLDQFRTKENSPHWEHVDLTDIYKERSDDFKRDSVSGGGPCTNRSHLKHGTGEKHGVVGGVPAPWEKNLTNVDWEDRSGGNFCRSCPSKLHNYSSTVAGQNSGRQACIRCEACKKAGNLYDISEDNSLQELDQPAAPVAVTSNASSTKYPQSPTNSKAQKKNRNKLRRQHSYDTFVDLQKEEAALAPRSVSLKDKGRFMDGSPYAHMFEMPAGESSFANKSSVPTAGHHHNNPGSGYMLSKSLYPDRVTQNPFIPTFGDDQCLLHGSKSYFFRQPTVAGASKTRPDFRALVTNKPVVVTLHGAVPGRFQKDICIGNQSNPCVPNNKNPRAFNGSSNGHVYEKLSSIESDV
Procedure: (§1) Many of the properties of native NMDA receptors are seen in recombinant homomeric NR1 receptors. These properties are altered by the NR2 subunits. Recombinant NMDA receptors expressed in Xenopus oocytes have been studied by voltage-clamp recording, as has developmental and regional expression of the mRNAs encoding NMDA receptor subunits. Electrophysiological assays were utilized to characterize the actions of compounds at NMDA receptors expressed in Xenopus oocytes. The compounds were assayed at four subunit combinations of cloned rat NMDA receptors, corresponding to three putative NMDA receptor subtypes [Moriyoshi, et al. Nature 1991, 354, 31-37; Monyer et al, Science 1992, 256, 1217-1221; Kutsuwada et al, Nature 1992, 358, 36-41; Sugihara et al, Biochem. Biophys Res. Commun. 1992, 185, 826-832].
(§2) Electrophysiological Assays at NMDA Receptor Subunits
(§3) Preparation of RNA. cDNA clones encoding the NR1A, NR2A, NR2B, NR2C and NR2D rat NMDA receptor subtypes were provided by Dr. P. H. Seeburg (see, Moriyoshi et al., Nature (Lond.) 354:31-37 (1991); Kutsuwada et al., Nature (Lond.) 358:36-41 (1992) Monyer et al., Science (Washington, D.C.) 256:1217-1221 (1992); Ikeda et al., FEBS Lett. 313:34-38 (1992); Ishii et al., J. Biol. Chem. 268:2836-2843 (1993) for details of these clones or their mouse homologs). The clones were transformed into appropriate host bacteria and plasmid preparations were made with conventional DNA purification techniques. A sample of each clone was linearized by restriction enzyme digestion and cRNA was synthesized with T3 RNA polymerase. The cRNA was diluted to 400 ng/μl and stored in 1 μl aliquots at -80° C. until injection.
(§4) The Xenopus oocyte expression system. Mature female Xenopus laevis were anaesthetized (20-40 min) using 0.15% 3-aminobenzoic acid ethyl ester (MS-222) and 2-4 ovarian lobes were surgically removed. Oocytes at developmental stages IV-VI (Dumont, J. N., J. Morphol. 136:153-180 (1972)), were dissected from the ovary still surrounded by enveloping ovarian tissues. Follicle-enclosed oocytes were micro-injected with 1:1 mixtures of cRNA:NR1A+NR2A, 2B, 2C or 2D; injecting ~2,5, or 20 ng of RNA encoding each receptor subunit. NR1A encoding cRNA was injected alone at ~20 ng. Oocytes were stored in Barth's medium containing (in mM):NaCl, 88; KCl, 1; CaCl2, 0.41; Ca(NO3)2, 0.33; MgSO4, 0.82 NaHCO3, 2.4; HEPES 5, pH 7.4, with 0.1 mg/ml gentamicin sulphate. While oocytes were still surrounded by enveloping ovarian tissues the Barth's medium was supplemented with 0.1% bovine serum. Oocytes were defolliculated 1-2 days following injections by treatment with collagenase (0.5 mg/ml Sigma Type I for 0.5-1 hr) (Miledi and Woodward, J. Physiol. (Lond.) 416:601-621 (1989)) and subsequently stored in serum-free medium.
(§5) Electrical recordings were made using a conventional two-electrode voltage clamp (Dagan TEV-200) over periods ranging between 3-21 days following injection. (Woodward et al., Mol. Pharmacol. 41: 89-103 (1992)). Oocytes were placed in a 0.1 ml recording chamber continuously perfused (5-15 ml min^-1 ) with frog Ringer's solution containing (in mM):NaCl, 115; KCl, 2; CaCl2, 1.8; HEPES, 5; pH 7.4. Drugs were applied by bath perfusion. Using oocytes expressing different subunit combinations of NMDA receptor, NMDA currents were activated by co-application of glutamate (100 μm) and glycine (1-100 μm). Inhibitory potency of the novel antagonists was assessed on responses elicited by fixed concentrations of glutamate and glycine, by measuring reductions in current induced by progressively increasing concentrations of antagonist. Concentration-inhibition curves were fit with equation 1.
(§6) I/Icontrol =1/(1+([antagonist]/10^-pIC50)^n) Eq. 1
(§7) in which Icontrol is the current evoked by agonists alone, pIC50 =-log IC50, IC50 is the concentration of antagonist that produces half maximal inhibition, and n is the slope factor. (De Lean et al., Am. J. Physiol. 235:E97-102 (1978)). […]

[3] = target: T2, NMDA receptor subunits 1A/2A (Rattus norvegicus, UniProt P35439+Q00959); assay: Electrophysiological assay at NMDA receptor subunits expressed in Xenopus oocytes, 1A/2A; format: cell-based; details: glutamate 100 μm and glycine 1-100 μm
T2 construct: expressed in transfected cells; host or cells: Xenopus laevis oocytes (cRNA injection; clones from Dr. P. H. Seeburg)
T2 sequence (Q00959 20-1464 limits assumed, other chains not shown): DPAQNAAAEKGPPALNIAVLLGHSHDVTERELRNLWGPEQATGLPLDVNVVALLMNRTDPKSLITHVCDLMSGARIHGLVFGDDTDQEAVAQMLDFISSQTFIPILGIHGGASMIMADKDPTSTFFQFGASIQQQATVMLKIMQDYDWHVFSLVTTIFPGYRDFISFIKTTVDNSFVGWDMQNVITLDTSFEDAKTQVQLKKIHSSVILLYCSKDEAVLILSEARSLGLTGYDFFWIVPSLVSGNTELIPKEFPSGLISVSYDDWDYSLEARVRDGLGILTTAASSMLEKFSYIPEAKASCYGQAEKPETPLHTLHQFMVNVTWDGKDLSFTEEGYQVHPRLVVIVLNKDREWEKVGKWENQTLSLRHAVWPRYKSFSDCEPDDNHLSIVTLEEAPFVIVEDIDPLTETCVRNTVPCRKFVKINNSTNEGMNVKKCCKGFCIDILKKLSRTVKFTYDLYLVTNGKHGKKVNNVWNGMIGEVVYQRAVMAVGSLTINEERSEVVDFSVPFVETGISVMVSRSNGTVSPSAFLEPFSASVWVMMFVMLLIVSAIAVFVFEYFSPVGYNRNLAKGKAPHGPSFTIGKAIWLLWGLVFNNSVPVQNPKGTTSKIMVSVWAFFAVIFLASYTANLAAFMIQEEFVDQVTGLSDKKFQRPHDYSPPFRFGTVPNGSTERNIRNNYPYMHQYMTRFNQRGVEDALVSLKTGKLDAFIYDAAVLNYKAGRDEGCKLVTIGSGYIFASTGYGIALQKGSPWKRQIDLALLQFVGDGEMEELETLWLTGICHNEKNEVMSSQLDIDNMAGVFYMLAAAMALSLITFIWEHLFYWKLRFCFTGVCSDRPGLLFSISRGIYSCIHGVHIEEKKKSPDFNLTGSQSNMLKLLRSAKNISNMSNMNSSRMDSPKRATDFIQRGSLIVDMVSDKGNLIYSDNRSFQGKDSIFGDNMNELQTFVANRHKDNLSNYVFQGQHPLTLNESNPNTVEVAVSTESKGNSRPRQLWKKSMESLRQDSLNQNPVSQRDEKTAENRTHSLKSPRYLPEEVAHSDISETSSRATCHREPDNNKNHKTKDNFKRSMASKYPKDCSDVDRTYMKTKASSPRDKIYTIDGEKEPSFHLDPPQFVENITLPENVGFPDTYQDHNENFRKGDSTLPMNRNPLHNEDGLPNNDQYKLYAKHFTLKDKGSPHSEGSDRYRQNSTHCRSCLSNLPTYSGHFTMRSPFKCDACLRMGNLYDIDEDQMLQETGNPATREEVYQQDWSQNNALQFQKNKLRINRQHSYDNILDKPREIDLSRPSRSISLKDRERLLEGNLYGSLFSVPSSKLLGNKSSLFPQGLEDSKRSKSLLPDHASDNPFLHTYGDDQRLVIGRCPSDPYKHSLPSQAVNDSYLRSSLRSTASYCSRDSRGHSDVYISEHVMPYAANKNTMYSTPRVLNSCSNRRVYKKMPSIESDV
Procedure: as §1, §2, §3, §4, §5, §6, §7

[4] = target: T3, NMDA receptor subunits 1A/2C (Rattus norvegicus, UniProt P35439+Q00961); assay: Electrophysiological assay at NMDA receptor subunits expressed in Xenopus oocytes, 1A/2C; format: cell-based; details: Xenopus oocytes; glutamate 100 μm and glycine 1-100 μm; read-out: Subunits IC50, 1A/2C
T3 construct: expressed in transfected cells; host or cells: Xenopus laevis oocytes (cRNA injection; clones from Dr. P. H. Seeburg)
T3 sequence (Q00961 20-1237, other chains not shown): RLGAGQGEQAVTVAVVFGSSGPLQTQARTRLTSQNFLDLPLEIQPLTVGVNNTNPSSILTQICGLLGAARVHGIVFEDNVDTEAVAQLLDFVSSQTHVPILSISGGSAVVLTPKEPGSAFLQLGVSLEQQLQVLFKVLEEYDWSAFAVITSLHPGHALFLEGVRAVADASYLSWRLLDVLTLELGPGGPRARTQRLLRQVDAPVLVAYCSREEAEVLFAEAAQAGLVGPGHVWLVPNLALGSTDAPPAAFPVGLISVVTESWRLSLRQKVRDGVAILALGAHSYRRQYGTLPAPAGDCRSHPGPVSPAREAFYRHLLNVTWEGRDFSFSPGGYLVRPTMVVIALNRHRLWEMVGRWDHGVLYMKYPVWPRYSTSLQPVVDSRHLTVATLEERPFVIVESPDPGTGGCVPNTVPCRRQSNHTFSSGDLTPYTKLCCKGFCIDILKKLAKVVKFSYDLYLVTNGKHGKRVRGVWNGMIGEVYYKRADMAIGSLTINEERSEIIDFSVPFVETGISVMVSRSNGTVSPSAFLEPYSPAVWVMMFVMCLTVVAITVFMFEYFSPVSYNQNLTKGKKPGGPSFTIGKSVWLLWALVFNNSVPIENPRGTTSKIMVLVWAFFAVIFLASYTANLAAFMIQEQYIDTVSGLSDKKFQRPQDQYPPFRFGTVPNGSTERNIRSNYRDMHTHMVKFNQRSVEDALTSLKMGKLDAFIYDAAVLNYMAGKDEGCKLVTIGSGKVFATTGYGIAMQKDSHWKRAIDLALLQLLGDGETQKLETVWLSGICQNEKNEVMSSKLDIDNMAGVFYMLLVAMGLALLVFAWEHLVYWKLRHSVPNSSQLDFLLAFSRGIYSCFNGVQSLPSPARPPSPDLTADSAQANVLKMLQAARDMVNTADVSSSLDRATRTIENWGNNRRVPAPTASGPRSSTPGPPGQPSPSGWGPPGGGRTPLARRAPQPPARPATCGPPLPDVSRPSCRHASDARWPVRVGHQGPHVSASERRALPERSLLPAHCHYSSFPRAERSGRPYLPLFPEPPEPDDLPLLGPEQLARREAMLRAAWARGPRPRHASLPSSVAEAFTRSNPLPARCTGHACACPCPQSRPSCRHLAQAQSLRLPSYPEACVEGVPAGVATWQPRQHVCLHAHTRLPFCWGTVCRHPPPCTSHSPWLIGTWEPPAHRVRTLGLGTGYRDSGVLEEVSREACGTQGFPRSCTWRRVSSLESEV
Procedure: as §1, §2, §3, §4, §5, §6, §7

Compound | IC50 [2] | IC50 [3] | IC50 [4] | ED50 [1]
ON=Cc1cccc(OCCN2CCC(Cc3ccccc3)CC2)c1 [Ex. 16, 3-((2-(4-Benzylpiperidin-1-yl)ethyl)oxy)benzaldehyde oxime] | 0.5 µM | – | > 100 µM | 2.5 mg/kg
O=c1[nH]c2ccccc2n1C1CCN(CCCOc2ccccc2)CC1 [Ex. 96, 4-(2-Keto-1-benzimidazolinyl)-1-(3-phenoxypropyl)piperidine hydrobromide] | 17 µM | – | > 100 µM | 3.5 mg/kg
Nc1ccc(OCCN2CCC(Cc3ccccc3)CC2)cc1 [Ex. 65, 4-Benzyl-1-[2-(4-aminophenoxy)ethyl]piperidine] | – | – | – | 6 mg/kg
Nc1cccc(OCCN2CCC(Cc3ccccc3)CC2)c1N [Ex. 53, 4-Benzyl-1-[2-(2,3-diaminophenoxy)ethyl]piperidine] | 0.31 µM | – | > 100 µM | 2.5 mg/kg
COc1ccc(OCCN2CCC(Cc3ccccc3)CC2)cc1 [Ex. 70] | 1 µM | – | > 100 µM | 1.5 mg/kg
O=[N+]([O-])c1ccc(OCCN2CCC(Cc3ccc(Cl)cc3)CC2)cc1 [Ex. 27, 4-(4-Chlorobenzyl)-1-(2-(4-nitrophenoxy)ethyl)piperidine hydrobromide] | 5 µM | – | > 100 µM | 5 mg/kg
OC1(Cc2ccccc2)CCN(CCc2ccccc2)CC1 [Ex. 90, 4-Benzyl-4-hydroxy-1-(2-phenylethyl)piperidine hydrochloride] | 5 µM | – | > 100 µM | 5 mg/kg
Cl.O=Cc1cccc(OCCN2CCC(Cc3ccccc3)CC2)c1 [Ex. 15, 3-((2-(4-Benzylpiperidin-1-yl)ethyl)oxy)benzaldehyde hydrochloride] | 1.2 µM | – | > 100 µM | 100 mg/kg
c1ccc(CC2CCN(CCOc3cccc4cccnc34)CC2)cc1 [Ex. 51, 4-Benzyl-1-[2-(8-quinolinoxy)ethyl]piperidine] | 5 µM | 80 µM | > 100 µM | –
Nc1cccc(OCCN2CCC(Cc3ccccc3)CC2)c1 [Ex. 63, 4-Benzyl-1-[2-(3-aminophenoxy)ethyl]piperidine] | 0.5 µM | – | > 100 µM | 3 mg/kg
OC(CCc1ccccc1)CN1CCC(Cc2ccccc2)CC1 (stereo not shown) [Ex. 4, 4-Benzyl-1-[(2-hydroxy-4-phenyl)butyl]piperidine] | 9 µM | > 100 µM | > 100 µM | –
c1ccc(CCN2CCC(Cc3ccccc3)CC2)cc1 [Ex. 83, 4-Benzyl-1-(2-phenylethyl)piperidine hydrochloride] | 1 µM | – | > 100 µM | 2 mg/kg
Fc1ccc(CC2CCN(CCOc3ccc(F)cc3)CC2)cc1 [Ex. 33, 4-(4-Fluorobenzyl)-1-(2-(4-fluorophenoxy)ethyl)piperidine hydrochloride] | 2 µM | – | > 100 µM | 4 mg/kg
COc1cccc(OCCN2CCC(Cc3ccccc3)CC2)c1 [Ex. 69, 4-Benzyl-1-[2-(3-methoxyphenoxy)ethyl]piperidine] | 0.43 µM | 20 µM | > 100 µM | –
NC(=O)Cc1cccc(OCCN2CCC(Cc3ccccc3)CC2)c1 [Ex. 19, 1-(2-(3-(Aminocarbonylmethyl)phenoxy)ethyl)-4-benzylpiperidine] | 0.35 µM | – | – | 6 mg/kg
CC(CCOc1ccccc1)N1CCC(Cc2ccccc2)CC1 (stereo not shown) [Ex. 41, 4-Benzyl-1-(1-methyl-3-phenoxypropyl)piperidine hydrochloride] | 5 µM | 90 µM | > 100 µM | –
O=c1[nH]c2cccc(OCCN3CCC(Cc4ccccc4)CC3)c2[nH]c1=O [Ex. 54, 4-Benzyl-1-[2-(2,3-dioxoquinoxalin-5-oxy)ethyl]piperidine] | 3.6 µM | 60 µM | > 100 µM | –

Further molecules by falling IC50 [2], results first:

IC50 [2] | IC50 [3] | IC50 [4] | Compound | ED50 [1]
0.3 µM | – | > 100 µM | Nc1ccc(OCCN2CCC(Cc3ccccc3)CC2)cc1N [Ex. 57, 4-Benzyl-1-[2-(3,4-diaminophenoxy)ethyl]piperidine] | 6.5 mg/kg
0.3 µM | – | > 100 µM | Nc1ccccc1OCCN1CCC(Cc2ccccc2)CC1 [Ex. 61, 4-Benzyl-1-[2-(2-aminophenoxy)ethyl]piperidine] | 2.5 mg/kg
0.25 µM | 70 µM | – | Oc1ccc(OCCN2CCC(Cc3ccc4c(c3)CCCC4)CC2)cc1 [Ex. 139, 4-((5,6,7,8-Tetrahydro-2-naphthyl)methyl)-1-(2-(4-hydroxyphenoxy)ethyl)piperidine hydrochloride] | 4.5 mg/kg
0.11 µM | 140 µM | 50 µM | N=c1[nH]c2ccc(OCCN3CCC(Cc4ccccc4)CC3)cc2[nH]1 [Ex. 172, 4-Benzyl-1-(2-(2-iminobenzimidazol-5-oxy)ethyl)piperidine] | –
0.1 µM | > 300 µM | > 300 µM | Cc1ccc(CC2CCN(CCOc3ccc4cc(O)ccc4c3)CC2)cc1 [Ex. 192, 4-(4-Methylbenzyl)-1-(2-(2-hydroxynaphth-6-oxy)ethyl)piperidine] | –
0.08 µM | 30 µM | 280 µM | Oc1ccc(OCCN2CCC(Cc3cccc(F)c3)CC2)cc1 [Ex. 112, 1-[2-(4-Hydroxyphenoxy)ethyl]-4-(3-fluorobenzylpiperidine hydrochloride] | 4.5 mg/kg
0.04 µM | 65 µM | 70 µM | Cc1ccc(CC2CCN(CCOc3ccc(O)c(C)c3)CC2)cc1 [Ex. 153, 1-[2-(4-Hydroxy-3-methylphenoxy)ethyl]-4-(4-methylbenzyl)piperidine hydrochloride] | –
0.03 µM | 170 µM | > 300 µM | Cc1ccc(CC2(O)CCN(CCOc3ccc(O)c(C)c3)CC2)cc1 [Ex. 155, 1-[2-(4-hydroxy-3-methylphenoxy)ethyl]-4-hydroxy-4-(4-methylbenzyl)piperidine hydrochloride] | –
0.025 µM | 16 µM | 70 µM | O=c1[nH]c2ccc(OCCN3CCC(Cc4ccc(Cl)cc4)CC3)cc2[nH]1 [Ex. 80, 4-(4-Chlorobenzyl)-1-[2-(2-oxobenzimidazol-5-oxy)ethyl]piperidine] | –
0.02 µM | – | > 300 µM | Cl.Oc1ccc(OCCN2CCC(Cc3ccc(F)cc3)CC2)cc1F [Ex. 150, 1-[2-(4-Hydroxy-3-fluorophenoxy)ethyl]-4-(4-fluorobenzyl)piperidine hydrochloride] | 3 mg/kg
0.02 µM | 90 µM | 260 µM | Oc1ccc(CCCN2CCC(Cc3ccccc3)CC2)cc1 [Ex. 106, 1-[3-(4-Hydroxyphenyl)propyl]-4-benzylpiperidine hydrochloride] | –
